We go through eleven compounds from US20100172848A1, “SKIN AND SURFACE DISINFECTANT COMPOSITIONS CONTAINING BOTANICALS” (The Trustees Of Columbia University In the City of New York, priority 2008, published 2010).

Experiment [1] concerns S. aureus. Description: Five-minute kill test of solutions in 10% SDA40-B alcohol and water, colony counts on TSA. In kind it is cell-based. As to conditions: 5 minutes contact. As for the experimental part: Various concentrations of basil oil and acetic, lactic, and citric acids, separately and in combination, were prepared in 10 percent SDA40-B alcohol and water, and adjusted to 100 percent. Except for citric acid, which was added by weight, all other ingredients were measured by volume. 0.9 ml of each solution were dispensed in sterile culture tubes, in triplicate, and 0.1 ml of a 10^7 cfu/ml S. aureus culture was added to the tubes, vortexed, and then, five minutes later, 9.0 ml of drug inactivating medium was added to each tube. Serial dilutions were made with the drug inactivating medium. 0.5 ml of the dilutions were plated on trypticase soy agar (“TSA”) plates. As a control, water containing 10 percent SDA40-B alcohol was processed in parallel. The plates were incubated at 37° C. for 24-48 hours and then the colony counts were determined.
The same methodology was used to test the antimicrobial activity of combinations of citric acid with other essential oils.
Next, the same general protocol was used to test the efficacy of basil, cinammon and citronella oils against a variety of organisms, namely E. coli, P. aeruginosa, MRSA, C. albicans, and S. aureus.
Various concentrations of cinnamon leaf oil and citric acid were dissolved in SDA 40-B alcohol (10%) and water, and adjusted to 100 percent. Except for citric acid, which was added by weight, all other ingredients were measured by volume. 0.9 ml of each solution were dispensed in sterile culture tubes, in triplicate, and 0.1 ml of 10^7 cfu/ml of S. aureus culture was added to the tubes, vortexed, and then, five minutes later, 9.0 ml of drug inactivating medium was added to each tube. Serial dilutions were made with the drug inactivating medium. 0.5 ml of the dilutions were plated on trypticase soy agar (“TSA”) plates. As a control, water containing 10% percent SDA40-B alcohol was processed in parallel. The plates were incubated at 37° C. for 24-48 hours and then the colony counts were determined.
The following experiments were performed to evaluate the antibacterial activity of LG and Citric acid dissolved in alcohol, where the test organism used was S. aureus. Various amounts of LG oil and Citric acid were dissolved in SDA40-B alcohol, and then water was added to result in the EO concentration shown and an alcohol concentration of 10 percent. 0.9 ml of each solution were dispensed in sterile culture tubes, in triplicate, and 0.1 ml of a 10^7 cfulml S. aureus culture was added to the tubes, vortexed, and then, five minutes later, 9.0 ml of drug inactivating medium was added to each tube. Serial dilutions were made with drug inactivating medium. 0.5 ml of the dilutions were plated on trypticase soy agar (“TSA”) plates. As a control, water containing 10 percent SDA40-B alcohol was processed in parallel. The plates were incubated at 37° C. for 24-48 hours and then the colony counts were determined.

For experiment [2], the system named is S. aureus. Description: Soap rapid antimicrobial activity (30 second kill) with bovine serum. In kind it is cell-based.
Experimental: The antimicrobial activity of the above soap was tested in parallel with commercial Softsoap® containing triclosan (Softsoap Antibacterial; Colgate-Palmolive). 0.1 ml of a 10^8 cfu/ml culture of each microbe tested was mixed with 0.1 ml of bovine serum and placed in a sterile culture tube. 0.8 ml of the test soap formulation was added to the tube and vortexed for 30 seconds. Then 9.0 ml DNB was added to neutralize the activity of the soap. The tube was then vortexed and serially diluted with DNB. 0.5 ml of the diluted solution was plated on TSA plates. The same soap base lacking cinnamon oil, citric acid, and orange oil, with phosphate buffered saline mixed with the culture, were used as the controls.
The antimicrobial activity of the above soap was tested in parallel with commercial Dial® Antibacterial Hand Soap) containing triclosan. 0.1 ml of a 10^8 cfu/ml culture of each microbe tested was mixed with 0.1 ml of bovine serum and placed in a sterile culture tube. 0.8 ml of the test soap formulation was added to the tube and vortexed for 30 seconds. Then 9.0 ml DNB was added to neutralize the activity of the soap. The tube was then vortexed and serially diluted with DNB. 0.5 ml of the diluted solution was plated on TSA plates. […]
(§1) A mixture of 0.1 ml of 10^7 cfu/ml of S. aureus culture and 0.1 ml of bovine serum were placed in a sterile culture tube. […] 0.5 ml of the diluted solution was plated on trypticase soy agar plates, incubated at 37° C. for 24-48 hrs and the colony counts were determined. […]
as §1
A mixture of 0.1 ml of 10^8 cfu/ml of S. aureus culture and 0.1 ml of bovine serum were placed in a sterile culture tube. […] 0.5 ml of the diluted solution was plated on trypticase soy agar plates, incubated at 37° C. for 24-48 hrs and the colony counts were determined.
[3] abbreviates: 10 percent SDA40-B alcohol, control counts 1 × 10^6 to 5 × 10^6 (Table 67).
Setting [4] is: 10 percent SDA40-B alcohol, control counts 1 × 10^6 to 5 × 10^6 (Table 66).
[5] abbreviates: SDA 40-B alcohol (10%) and water (Table 71).

For `CC(C)=CCCC(C)=CCCC(C)=CCO` [0.25% Farnesol, Farnesol], the “Log 10 reduction” value with S. aureus [1] (setting [3]) was determined as 0 log10.
With `CC(=O)O` [1% Acetic acid (AA), Acetic acid], the “Log 10 reduction” value with S. aureus [1] (setting [4]) is listed as 0.2 log10.
Consider `O=C(O)CC(O)(CC(=O)O)C(=O)O` [1% Citric Acid (CA), Citric Acid], for which the “Log 10 reduction” value is reported as 0.1 log10 in the experiment on S. aureus [1] (setting [4]); 0.1 log10 in the experiment on S. aureus [1] (setting [3]); 0.30 log10 in the experiment with S. aureus [1] (SDA 40-B alcohol (10%) and water (Table 71), listed as Citric Acid 1.0%). For the same compound, in the experiment with S. aureus [1] (10 percent alcohol, control counts 1 × 10^6 to 5 × 10^6 (Table 79)), the “Log10 reduction from control” value worked out at 0.3 log10.
For `CC(O)C(=O)O` (centres unmarked) [1% Lactic acid (LA), Lactic acid], the “Log 10 reduction” value in the experiment on S. aureus [1] (setting [4]) turned out to be 2.3 log10.
As to `CCCCCCCCC(O)CO` (centres unmarked) [1,2 decanediol (0.3%)], the “Log10 reduction from control” value in the experiment with S. aureus [2] (alkanediol 0.3% w/w where present, control counts 2 × 10^8-5 × 10^8) is listed as 0.6 log10.
Take `CCCCCCCCC(O)CO` (centres unmarked) [1,2 decanediol(0.5%)]: in the experiment with S. aureus [2] (alkanediol 0.5% w/w where present, soap pH 4.5-4.6, control counts 2 × 10^8-5 × 10^8), the “Log10 reduction from control” value was 1.4 log10.
As to `O=C(O)CC(O)(CC(=O)O)C(=O)O` [1.0 citric acid], the “Log10 reduction from control” value in the experiment on S. aureus [2] (compounds (% w/w) in soft soap lacking triclosan, PBS control counts 7 × 10^7-1 × 10^8) worked out at 1.3 log10.
On to `O=C(O)CC(O)(CC(=O)O)C(=O)O` [Citric Acid 0.5%, Citric Acid], for which the “Log 10 reduction” value in the experiment on S. aureus [1] (setting [5]) worked out at 0.20 log10.
Still for that read-out and setting: to `O=C(O)CC(O)(CC(=O)O)C(=O)O` [Citric Acid 0.25%, Citric Acid] belongs 0.08 log10.
Turning to `O=C(O)CC(O)(CC(=O)O)C(=O)O` [Citric Acid 0.125%, Citric Acid], in the experiment on S. aureus [1] (setting [5]), the “Log 10 reduction” value was 0.02 log10.
On to `O=C(O)CC(O)(CC(=O)O)C(=O)O` [Citric Acid 2%, Citric Acid], for which, in the experiment on S. aureus [1] (setting [5]), the “Log 10 reduction” value came to 0.32 log10.
